Measurements from patent publication US20230181599A1, “PROGESTOGEN FORMULATIONS AND USES THEREOF” (Shenzhen Evergreen Therapeutics Co., Ltd, priority 2020, published 2023).

What was measured:
Body weight of COPD rats = type: in vivo, Wistar rats; conditions: at 24 weeks; for weight increase: vs model group / BUD alone groups
Text: Inhibition of weight increase was lower in 17-HPC group than in the same dose BUD group.

Sprague-Dawley rats = test: Seven-day inhalation toxicity study in rats (GLP); type: in vivo
Method: (§1) A 7-day inhalation toxicity study in rats was conducted under GLP conditions. In this study, aerosolized 17-HPC was administered to Sprague-Dawley rats (10/sex/group) at 8, 24, and 72 mg/kg/day for 7 consecutive days. A control group of rats was dosed with aerosolized vehicle. Animals were observed daily for clinical signs. Body weight and food consumption were recorded at pretest, and then on Days 1, 4, and 7. In order to evaluate reversibility of 17-HPC treatment, a satellite rat group (5/sex/group) was dosed by inhalation at 72 mg/kg/day for 7 days, and then was sacrificed on Day 14. Except for the rats in the satellite group, all animals were sacrificed on Day 8. Hematology and biochemistry examinations were performed at the end of the study. Organ weight, gross pathology, and histopathology evaluations were performed.
(§2) Histopathological examinations on the animal tissues from the 24 and 72 mg/kg/day groups have not been completed prior to submission of this pre-IND package.
(§3) Based on the preliminary results of this study, inhalational administration of 17-HPC at 8 mg/kg/day (48 mg/m^2/day) was determined as the no observed adverse effect level (NOAEL) The proposed clinical study is a single dose inhalation study starting at a dose level of 300 μg, which is approximately 6 μg/kg/day (222 μg/m^2/day) based on a human body weight of 50 kg/person. Therefore, the NOAEL generated in this inhalation study is approximately 216 times greater than the proposed initial clinical dose based on body surface areas.

[1] = Seven-day inhalation toxicity study in rats (GLP); type: in vivo, Sprague-Dawley rats; conditions: both sexes, Sprague-Dawley, rat, in vivo, inhaled or intranasal; inhalation, 7 consecutive days, rats; preliminary results; read-out: no observed adverse effect level (NOAEL)
Method: as §1, §2, §3

[2] = system: TNF-α, IL-1β, IL-6 and IL-17; test: Serum and BALF cytokine levels by ELISA in COPD rats; type: in vivo, Wistar rats; conditions: different doses, aside from the low dose (0.1 mg/ml) 17-HPC group
Method: (§4) To examine the in vitro and in vivo efficacy of 17-HPC inhalation in chronic obstructive pulmonary disease (COPD) rats, a rat model of COPD was established by exposing Wistar rats to CS for 1 hour every day for a total of 180 days. Seventy-two Wistar rats were randomly divided into the blank control group, model group, 17-HPC (0.5 mg/ml, 0.25 mg/ml and 0.1 mg/ml) groups, BUD (0.5 mg/ml and 0.1 mg/ml) groups, and combination treatment (0.5 mg/ml BUD+0.25 mg/ml 17-HPC and 0.1 mg/ml BUD+0.25 mg/ml 17-HPC) groups. Drug concentration is the nebulized solution concentration. Lung function (forced vital capacity) of rats was measured using the small animal spirometer, and differential count in the BALF was determined under the microscope. Serum and BALF cytokine (IL-6, IL-17, TNF-α and IL-β) levels were measured by ELISA. Inflammatory cell infiltration area and MLI in rat lung tissues were determined by HE staining.

[3] = PK of oral formulations of PR2005 in female dogs, relative bioavailability vs intramuscular injection (MAKENA); type: in vivo
Text: This study determined the pharmacokinetic parameters of the test drug PR2005 (also referred to herein as 17-HPC) in different formulations after oral gavage or capsule administrations in dogs. This study further determined the relative bioavailability of the test drug PR2005 in each formulation, compared to intramuscular injection solution (MAKENA®).
PK parameters were estimated, including maximum plasma drug concentration (Cmax), time to reach Cmax (Tmax), time delay in absorption process (Tlag), area under the plasma concentration-time curve from time 0 to the last quantifiable data point (AUClast), area under the plasma concentration-time curve from time zero to infinity (AUCinf), plasma half-life (t1/2), and apparent plasma clearance (CL/F), apparent volume of distribution (Vz/F). All these parameters were computed using standard non-compartmental methods of analysis. Geometric mean and CV % are reported for most of PK parameters, and median with range is reported for Tmax and Tlag. Plasma PR2005 PK data was analyzed in Pheonix WinNonLin 8.1 (Certara USA, Inc.).
Log-transformed values of AUCinf were analyzed using a linear mixed-effects model. Least squares mean (LSM) for each treatment group and 90% confidence interval (CI) for the mean of the pairwise differences were estimated using this model. After back transformation from the log scale, estimates of geometric LSM and 90% CI for the ratio of means were calculated. Relative bioavailability (Fr %) was calculated as the ratio of dose normalized geometric least square mean (LSM) for test formulation and IM solution: […]
PR2005 250 mg intramuscular injection: 250 mg 17-HPC, 28.6% v/v of castor oil (CAS 8001-79-4), 46% v/v of benzyl benzoate (CAS 120-51-4), and 2% v/v of benzyl alcohol.
PR2005 250 mg oral (powder in capsules): 20% w/w of 17-HPC and 80% w/w mannitol. The particle size of 17-HPC is from about 2 to about 10 μm.
PR2005 250 mg Suspension #1: 30% w/w of 17-HPC and 70% castor oil (CAS 8001-79-4). The particle size of 17-HPC is from about 5 to about 30 μm.
PR2005 250 mg and 750 mg Solution #3: 30% w/w of 17-HPC, 63% w/w of benzyl benzoate (CAS 120-51-4), and 7% w/w of macrogolglycerol ricinoleate (CAS 61791-12-6).
The test items were administered on the first day of each trial. Each animal group was rotated through each trial with at least 4 days between trials and a […] 7-day washout between each test item administration.

[4] = system: smoke exposure-induced COPD rats; test: HE staining of lung tissue: inflammatory cell infiltration area and MLI in COPD rats; type: in vivo, Wistar rats
Method: as §4, with “Seventy-two” for “To examine the in vitro and in vivo efficacy of 17-HPC inhalation in chronic obstructive pulmonary disease (COPD) rats, a rat model of COPD was established by exposing Wistar rats to CS for 1 hour every day for a total of 180 days. Seventy-two”, “staining. […] The efficacy of high dose BUD was equivalent to that of high dose BUD+17-HPC.” for “staining.”

[5] = system: smoke exposure-induced COPD rats; test: Differential count in BALF (neutrophils) of COPD rats; type: in vivo, Wistar rats; conditions: CS-exposed rats, nebulized drug
Method: as §4, with “Seventy-two” for “To examine the in vitro and in vivo efficacy of 17-HPC inhalation in chronic obstructive pulmonary disease (COPD) rats, a rat model of COPD was established by exposing Wistar rats to CS for 1 hour every day for a total of 180 days. Seventy-two”, “staining. […] The efficacy of high dose BUD was equivalent to that of high dose BUD+17-HPC.” for “staining.”

[6] = biological target: ABCB1 efflux transporters (Homo sapiens, UniProt P08183); conditions: Bloise, E., et al. 2016; cited from earlier work
Chain of ABCB1 efflux transporters (P08183 whole entry): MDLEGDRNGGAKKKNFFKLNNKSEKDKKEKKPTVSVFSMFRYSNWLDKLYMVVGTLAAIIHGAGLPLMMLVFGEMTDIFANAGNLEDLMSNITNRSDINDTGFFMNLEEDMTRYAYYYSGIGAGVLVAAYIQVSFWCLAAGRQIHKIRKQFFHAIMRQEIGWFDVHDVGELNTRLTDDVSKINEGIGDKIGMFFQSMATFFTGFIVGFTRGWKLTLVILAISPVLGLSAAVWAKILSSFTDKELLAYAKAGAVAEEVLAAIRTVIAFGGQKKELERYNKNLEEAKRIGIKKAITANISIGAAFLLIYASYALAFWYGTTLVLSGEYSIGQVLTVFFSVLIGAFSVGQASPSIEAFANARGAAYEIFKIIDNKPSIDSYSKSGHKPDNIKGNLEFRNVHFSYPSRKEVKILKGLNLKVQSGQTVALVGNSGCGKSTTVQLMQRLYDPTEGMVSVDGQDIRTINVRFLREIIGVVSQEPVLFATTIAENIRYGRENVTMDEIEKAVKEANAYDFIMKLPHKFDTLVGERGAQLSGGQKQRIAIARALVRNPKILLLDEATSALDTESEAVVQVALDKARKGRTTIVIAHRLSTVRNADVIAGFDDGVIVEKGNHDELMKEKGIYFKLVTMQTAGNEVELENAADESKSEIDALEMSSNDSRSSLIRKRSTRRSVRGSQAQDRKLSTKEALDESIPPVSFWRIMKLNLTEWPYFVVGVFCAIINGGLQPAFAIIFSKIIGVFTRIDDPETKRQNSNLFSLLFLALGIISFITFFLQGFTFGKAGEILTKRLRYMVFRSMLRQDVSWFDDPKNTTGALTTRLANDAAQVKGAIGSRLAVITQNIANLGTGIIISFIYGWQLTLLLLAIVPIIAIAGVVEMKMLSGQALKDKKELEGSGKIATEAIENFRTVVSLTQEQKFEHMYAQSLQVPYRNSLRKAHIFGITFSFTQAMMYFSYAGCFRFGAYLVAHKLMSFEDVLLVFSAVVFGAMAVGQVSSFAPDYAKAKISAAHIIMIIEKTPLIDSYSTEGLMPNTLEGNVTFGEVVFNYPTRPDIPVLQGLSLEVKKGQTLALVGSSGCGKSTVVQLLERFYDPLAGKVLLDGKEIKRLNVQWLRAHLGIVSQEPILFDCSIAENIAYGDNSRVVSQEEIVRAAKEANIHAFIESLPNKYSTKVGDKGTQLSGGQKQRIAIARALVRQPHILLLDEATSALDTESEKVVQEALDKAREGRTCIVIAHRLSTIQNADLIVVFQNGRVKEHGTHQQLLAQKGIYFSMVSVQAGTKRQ

[7] = system: smoke exposure-induced COPD rats; test: Lung function (FEV0.2/FVC, small animal spirometer) in smoke exposure-induced COPD rats; type: in vivo, Wistar rats; conditions: CS-exposed rats, nebulized drug; compared with the model group
Method: as §4, with “Seventy-two” for “To examine the in vitro and in vivo efficacy of 17-HPC inhalation in chronic obstructive pulmonary disease (COPD) rats, a rat model of COPD was established by exposing Wistar rats to CS for 1 hour every day for a total of 180 days. Seventy-two”, “staining. Lung function of rats was measured using the small animal spirometer after 24 weeks of CS exposure.” for “staining.”

[8] = Saxton D J et al. 2004; cited from earlier work
[9] = 250 mg intramuscular injection, geometric mean

| Compound | weight increase (Body weight of COPD rats) | no observed adverse effect level (NOAEL), body surface area (Sprague-Dawley rats; inhalation, 7 days, rats) | NOAEL relative to the proposed initial clinical dose (300 μg) based on body surface areas (Sprague-Dawley rats; rat, in vivo) | pathological alterations after a 7-day recovery period (Sprague-Dawley rats; rat, in vivo, 72 mg/kg/day) | NOAEL at 7 days [1] | TNF-α, IL-1β, IL-6 and IL-17 levels in the BALF [2] | Cl/F [3, 9] | V [3, 9] | half-life ([3]; female, dog, plasma, im, 250 mg intramuscular injection, geometric mean) | Tmax ([3]; female, dog, plasma, im, 250 mg intramuscular injection, median) | dose proportionality of Cmax and AUC, 250 to 750 mg ([3]; oral) | inflammatory cell infiltration in lung tissue sections (HE staining) ([4]; 17-HPC groups vs model rats) | MLI ([4]; aside from the 0.1 mg/ml 17-HPC group, dose-dependent) | inflammatory cell infiltration in the lung tissues ([4]; high dose 17-HPC) | Inhibition of weight increase vs same dose BUD group (Body weight of COPD rats) | percentage of neutrophils in rat BALF [5] | ABCB1 efflux transporter substrate [6] | FEV0.2/FVC % [7] | activity when administered orally [8] |
| --- | --- | --- | --- | --- | --- | --- | --- | --- | --- | --- | --- | --- | --- | --- | --- | --- | --- | --- | --- |
| CCCC1O[C@@H]2C[C@H]3[C@@H]4CCC5=CC(=O)C=C[C@]5(C)[C@H]4[C@@H](O)C[C@]3(C)[C@]2(C(=O)CO)O1 (some centres unmarked) [BUD, budesonide] | inhibited weight increase |  |  |  |  |  |  |  |  |  |  |  |  |  |  |  |  |  |  |
| CCCCCC(=O)O[C@]1(C(C)=O)CC[C@H]2[C@@H]3CCC4=CC(=O)CC[C@]4(C)[C@H]3CC[C@@]21C [Solution 17-HPC, 17-[(1-Oxohexyl)oxyl]-pregn-4-ene-3,20-dione] | no difference in weight increase | 48 mg/m^2/day | approximately 216 times | no remarkable pathological alterations | 8 mg/kg/day | downregulate | 35.68 L/h | 2485 L | 48.4 h | 48 h | generally greater than dose proportional | attenuated | decreased | antagonize inflammatory cell infiltration | lower | reduced the percentage of neutrophils | substrate of ABCB1 efflux transporters | improved FEV0.2/FVC % in a dose-dependent manner | inactive |
